Measurements as given in the NIST ThermoML archive (doi:10.1016/j.fluid.2007.11.005).

Details: Liquid, Bellows volumetry

CCCCn1cc[n+](C)c1.F[P-](F)(F)(F)(F)F [1-butyl-3-methylimidazolium hexafluorophosphate]
mass density [kg/m3]
Details | 312.8 K | 332.6 K | 353.2 K | 372.7 K | 392.8 K | 412.8 K | 432.6 K | 452.5 K | 472.3 K
100 kPa | 1352 | – | – | – | – | – | – | – | –
10000 kPa | 1358 | 1342 | 1325 | 1310 | 1299 | 1284 | 1269 | 1254 | 1240
20000 kPa | 1363 | 1347 | 1332 | 1317 | 1305 | 1290 | 1276 | 1262 | 1248
30000 kPa | 1368 | 1353 | 1338 | 1323 | 1311 | 1297 | 1283 | 1269 | 1256
40000 kPa | 1373 | 1358 | 1343 | 1329 | 1317 | 1303 | 1290 | 1276 | 1263
50000 kPa | 1378 | 1363 | 1349 | 1334 | 1323 | 1309 | 1296 | 1283 | 1270
60000 kPa | 1383 | 1368 | 1354 | 1339 | 1329 | 1315 | 1302 | 1289 | 1276
70000 kPa | 1388 | 1373 | 1359 | 1345 | 1334 | 1321 | 1308 | 1295 | 1282
80000 kPa | 1392 | 1378 | 1364 | 1350 | 1339 | 1326 | 1313 | 1301 | 1289
90000 kPa | 1396 | 1382 | 1368 | 1355 | 1344 | 1331 | 1319 | 1306 | 1294
100000 kPa | 1400 | 1387 | 1373 | 1360 | 1349 | 1336 | 1324 | 1312 | 1300
110000 kPa | 1405 | 1391 | 1377 | 1364 | 1354 | 1341 | 1329 | 1317 | 1305
120000 kPa | 1409 | 1395 | 1382 | 1369 | 1359 | 1346 | 1334 | 1322 | 1311
130000 kPa | 1412 | 1399 | 1386 | 1373 | 1363 | 1351 | 1339 | 1327 | 1316
140000 kPa | 1416 | 1403 | 1390 | 1377 | 1367 | 1355 | 1343 | 1332 | 1320
150000 kPa | 1420 | 1407 | 1394 | 1381 | 1372 | 1360 | 1348 | 1336 | 1325
160000 kPa | 1424 | 1411 | 1398 | 1385 | 1376 | 1364 | 1352 | 1341 | 1330
170000 kPa | 1427 | 1415 | 1402 | 1389 | 1380 | 1368 | 1357 | 1345 | 1334
180000 kPa | 1431 | 1418 | 1405 | 1393 | 1384 | 1372 | 1361 | 1350 | 1339
190000 kPa | 1435 | 1422 | 1409 | 1397 | 1388 | 1376 | 1365 | 1354 | 1343
200000 kPa | 1438 | 1425 | 1413 | 1401 | 1392 | 1380 | 1369 | 1358 | 1347
